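Compound exposure: 48 hours, 5 concentrations, 96-well plates. Here, GI50 denotes the concentration required for 50% inhibition of growth.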 Calls of active or inactive are those of the source. No stated cut-off is given here; in the data, active = GI50 up to about 1.1 µM and inactive = higher.
Experiments:
Assay in all cases: NCI-60 cell line screen, 48 h
[1] = test system: MDA-MB-435
[2] = test system: SK-MEL-28
[3] = test system: SF-268
[4] = test system: HCT-15
[5] = test system: U-251
[6] = test system: SN12C
[7] = test system: M14
[8] = test system: SW-620
[9] = test system: K562
[10] = test system: HOP-92
[11] = test system: DU-145
[12] = test system: SK-MEL-2
[13] = test system: MCF7
[14] = test system: SNB-19
[15] = test system: TK-10
[16] = test system: HCT-116
[17] = test system: IGROV-1
[18] = test system: EKVX
[19] = test system: SF-295
[20] = test system: OVCAR-8

Structure (SMILES)	GI50 [1]	GI50 [2]	GI50 [3]	GI50 [4] [µM]	GI50 [5]	GI50 [6]	GI50 [7]	GI50 [8]	GI50 [9]	GI50 [10]	GI50 [11]	GI50 [12]	GI50 [13]	GI50 [14]	GI50 [15]	GI50 [16]	GI50 [17]	GI50 [18]	GI50 [19]	GI50 [20]
COc1cc(/C=C(\C)[N+](=O)[O-])cc(OC)c1	14.9 µM (inactive)	18.4 µM (inactive)	19.3 µM (inactive)	12.6	17.7 µM (inactive)	17.1 µM (inactive)	14.8 µM (inactive)	4.49 µM (inactive)	2.69 µM (inactive)	13.5 µM (inactive)	18.7 µM (inactive)	17.2 µM (inactive)	6.73 µM (inactive)	> 40.9 µM (inactive)	11.8 µM (inactive)	16.1 µM (inactive)	6.46 µM (inactive)	19.2 µM (inactive)	25.8 µM (inactive)	15.6 µM (inactive)
C[C@@H](CN1CC(=O)NC(=O)C1)N1CC(=O)NC(=O)C1 [DEXRAZOXANE]	395 µM (inactive)	458 µM (inactive)	378 µM (inactive)	122	228 µM (inactive)	232 µM (inactive)	360 µM (inactive)	57.5 µM (inactive)	301 µM (inactive)	196 µM (inactive)	255 µM (inactive)	246 µM (inactive)	24.4 µM (inactive)	279 µM (inactive)	222 µM (inactive)	118 µM (inactive)	356 µM (inactive)	173 µM (inactive)	259 µM (inactive)	282 µM (inactive)
